In brackets after ≈: the same amount, converted by molar mass.
Experiment: Aqueous solubility
Assay type: physicochemical
From the text: The compounds used in this invention have a very low solubility in water.

In the case of `CC(=O)c1ccc2c(c1)[C@H](NC(=O)c1ccc(F)cc1)[C@@H](O)C(C)(C)O2` (relative stereo) [Compound 1, trans-6-acetyl-4S-(4-fluorobenzoylamino)-3,4-dihydro-2,2-dimethyl-2H-1-benzopyran-3R-ol], the USP solubility classification is reported as “virtually insoluble” and the aqueous solubility is reported as 8 µg/mL (≈ 22.4 µM).
